Source: patent EP0049968A1, “Pharmaceutical compositions” (priority 1980, dated 1982)
Like-named read-outs stand apart in the source and are kept apart here.

Columns and labels:
Format in all cases: cell-based
[1] = system: Staphylococcus aureus Russell; assay: MIC of compound (i) alone and in the presence of compound (iv), serial dilution in nutrient agar
Experimental: (§1) Activities of the compound (i) against a number of pathogenic organisms alone, and in the presence of 1.0, 2.5, 5.0 and 10 µg/ml of compound (iv).

[2] = system: E. coli; assay: as above
Experimental: as §1

[3] = system: Pseudomonas aeruginosa Dalgleish; assay: as above
Experimental: as §1

[4] = system: Proteus mirabilis C889; assay: as above
Experimental: as §1

[5] = system: Klebsiella aerogenes A; assay: as above
Experimental: as §1

[6] = system: highly resistant strains of Pseudomonas aeruginosa (producing both a plasmid-and chromosomally-mediated β-lactamase); assay: MIC of compound (i) alone and in combination with compound (iii), Pseudomonas aeruginosa strains; conditions: for MIC: Pseudomonas aeruginosa

What does the source list for `CC1(C)S[C@@H]2[C@H](NC(=O)[C@H](NC(=O)Nc3cnc(Nc4ccc(S(N)(=O)=O)cc4)nc3O)c3ccc(O)cc3)C(=O)N2[C@H]1C(=O)O` [compound (i)]?
MIC (μg/ml) for compound (i) ([1]; compound (iv) 5.0 μg/ml): 1.0 µg/mL; MIC (μg/ml) for compound (i) ([1]; compound (iv) 10 μg/ml): 1.0 µg/mL; MIC (μg/ml) for compound (i) ([2]; E. coli JT4 R+, compound (iv) 0 μg/ml (alone)): >100 µg/mL; MIC (μg/ml) for compound (i) ([2]; E. coli JT4 R+, compound (iv) 1.0 μg/ml): 10 µg/mL; MIC (μg/ml) for compound (i) ([2]; E. coli JT4 R+, compound (iv) 2.5 μg/ml): 2.5 µg/mL; MIC (μg/ml) for compound (i) ([2]; E. coli JT4 R+, compound (iv) 5.0 μg/ml): 1.0 µg/mL; MIC (μg/ml) for compound (i) ([2]; E. coli JT4 R+, compound (iv) 10 μg/ml): 0.5 µg/mL; MIC (μg/ml) for compound (i) ([2]; E. coli JT39 R+, compound (iv) 0 μg/ml (alone)): >100 µg/mL; MIC (μg/ml) for compound (i) ([2]; E. coli JT39 R+, compound (iv) 1.0 μg/ml): 1.0 µg/mL; MIC (μg/ml) for compound (i) ([2]; E. coli JT39 R+, compound (iv) 2.5 μg/ml): 0.5 µg/mL; MIC (μg/ml) for compound (i) ([2]; E. coli JT39 R+, compound (iv) 5.0 μg/ml): 0.5 µg/mL; MIC (μg/ml) for compound (i) ([2]; E. coli JT39 R+, compound (iv) 10 μg/ml): 0.1 µg/mL; MIC (μg/ml) for compound (i) ([3]; inoculum 10^-2, compound (iv) 0 μg/ml (alone)): 50 µg/mL; MIC (μg/ml) for compound (i) ([3]; inoculum 10^-2, compound (iv) 1.0 μg/ml): 2.5 µg/mL; MIC (μg/ml) for compound (i) ([3]; inoculum 10^-2, compound (iv) 2.5 μg/ml): 1.0 µg/mL; MIC (μg/ml) for compound (i) ([3]; inoculum 10^-2, compound (iv) 5.0 μg/ml): 1.0 µg/mL; MIC (μg/ml) for compound (i) ([3]; inoculum 10^-2, compound (iv) 10 μg/ml): 2.5 µg/mL; MIC (μg/ml) for compound (i) ([3]; inoculum Undiluted, compound (iv) 0 μg/ml (alone)): >100 µg/mL; MIC (μg/ml) for compound (i) ([3]; inoculum Undiluted, compound (iv) 1.0 μg/ml): 10 µg/mL; MIC (μg/ml) for compound (i) ([3]; inoculum Undiluted, compound (iv) 2.5 μg/ml): 5.0 µg/mL; MIC (μg/ml) for compound (i) ([3]; inoculum Undiluted, compound (iv) 5.0 μg/ml): 5.0 µg/mL; MIC (μg/ml) for compound (i) ([3]; inoculum Undiluted, compound (iv) 10 μg/ml): 10 µg/mL; MIC (μg/ml) for compound (i) ([4]; compound (iv) 0 μg/ml (alone)): >100 µg/mL; MIC (μg/ml) for compound (i) ([4]; compound (iv) 1.0 μg/ml): 0.5 µg/mL; MIC (μg/ml) for compound (i) ([4]; compound (iv) 2.5 μg/ml): 0.2 µg/mL; MIC (μg/ml) for compound (i) ([4]; compound (iv) 5.0 μg/ml): 0.1 µg/mL; MIC (μg/ml) for compound (i) ([4]; compound (iv) 10 μg/ml): 0.1 µg/mL; MIC (μg/ml) for compound (i) ([5]; compound (iv) 0 μg/ml (alone)): 5.0 µg/mL; MIC (μg/ml) for compound (i) ([5]; compound (iv) 1.0 μg/ml): 0.05 µg/mL; MIC (μg/ml) for compound (i) ([5]; compound (iv) 2.5 μg/ml): 0.05 µg/mL; MIC (μg/ml) for compound (i) ([5]; compound (iv) 5.0 μg/ml): 0.05 µg/mL; MIC (μg/ml) for compound (i) ([5]; compound (iv) 10 μg/ml): 0.05 µg/mL; MIC ([6]; read-out: MIC µg/ml compound (i) alone): > 160 µg/mL; MIC ([6]; read-out: MIC µg/ml compound (i) alone, Geometric mean): > 160 µg/mL; MIC µg/ml compound (i) compound (iii) (µg/ml) 1, Geometric mean ([6]; geometric mean of 6 Pseudomonas aeruginosa strains, with compound (iii) 1 µg/ml, 95% confidence limits (13.7-58.5)): 28.3 µg/mL; MIC µg/ml compound (i) compound (iii) (µg/ml) 2, Geometric mean ([6]; geometric mean of 6 Pseudomonas aeruginosa strains, with compound (iii) 2 µg/ml, 95% confidence limits (4.7-21.4)): 10 µg/mL; MIC µg/ml compound (i) compound (iii) (µg/ml) 5, Geometric mean ([6]; geometric mean of 6 Pseudomonas aeruginosa strains, with compound (iii) 5 µg/ml, 95% confidence limits (3.1-12.9)): 6.1 µg/mL; MIC µg/ml compound (i) compound (iii) (µg/ml) 10, Geometric mean ([6]; geometric mean of 6 Pseudomonas aeruginosa strains, with compound (iii) 10 µg/ml, 95% confidence limits (2.7-14.6)): 6.3 µg/mL; MIC µg/ml compound (i) alone ([6]; strain 1822): >160 µg/mL; MIC µg/ml compound (i) compound (iii) (µg/ml) 1 ([6]; strain 1822, with compound (iii) 1 µg/ml): 40 µg/mL; MIC µg/ml compound (i) compound (iii) (µg/ml) 2 ([6]; strain 1822, with compound (iii) 2 µg/ml): 5 µg/mL; MIC µg/ml compound (i) compound (iii) (µg/ml) 5 ([6]; strain 1822, with compound (iii) 5 µg/ml): 2.5 µg/mL; MIC µg/ml compound (i) compound (iii) (µg/ml) 10 ([6]; strain 1822, with compound (iii) 10 µg/ml): 2.5 µg/mL; MIC µg/ml compound (i) compound (iii) (µg/ml) 1 ([6]; strain Dalgleish, with compound (iii) 1 µg/ml): 20 µg/mL; MIC µg/ml compound (i) compound (iii) (µg/ml) 2 ([6]; strain Dalgleish, with compound (iii) 2 µg/ml): 10 µg/mL; MIC µg/ml compound (i) compound (iii) (µg/ml) 5 ([6]; strain Dalgleish, with compound (iii) 5 µg/ml): 5 µg/mL; MIC µg/ml compound (i) compound (iii) (µg/ml) 10 ([6]; strain Dalgleish, with compound (iii) 10 µg/ml): 10 µg/mL; MIC µg/ml compound (i) alone ([6]; strain FR6): >160 µg/mL; MIC µg/ml compound (i) compound (iii) (µg/ml) 1 ([6]; strain FR6, with compound (iii) 1 µg/ml): 80 µg/mL; MIC µg/ml compound (i) compound (iii) (µg/ml) 2 ([6]; strain FR6, with compound (iii) 2 µg/ml): 40 µg/mL; MIC µg/ml compound (i) compound (iii) (µg/ml) 5 ([6]; strain FR6, with compound (iii) 5 µg/ml): 20 µg/mL; MIC µg/ml compound (i) compound (iii) (µg/ml) 10 ([6]; strain FR6, with compound (iii) 10 µg/ml): 10 µg/mL; MIC µg/ml compound (i) alone ([6]; strain FR13): >160 µg/mL; MIC µg/ml compound (i) compound (iii) (µg/ml) 1 ([6]; strain FR13, with compound (iii) 1 µg/ml): 40 µg/mL; MIC µg/ml compound (i) compound (iii) (µg/ml) 2 ([6]; strain FR13, with compound (iii) 2 µg/ml): 10 µg/mL; MIC µg/ml compound (i) compound (iii) (µg/ml) 5 ([6]; strain FR13, with compound (iii) 5 µg/ml): 5 µg/mL; MIC µg/ml compound (i) compound (iii) (µg/ml) 10 ([6]; strain FR13, with compound (iii) 10 µg/ml): 2.5 µg/mL; MIC µg/ml compound (i) alone ([6]; strain Horton): >160 µg/mL; MIC µg/ml compound (i) compound (iii) (µg/ml) 1 ([6]; strain Horton, with compound (iii) 1 µg/ml): 20 µg/mL; MIC µg/ml compound (i) compound (iii) (µg/ml) 2 ([6]; strain Horton, with compound (iii) 2 µg/ml): 10 µg/mL; MIC µg/ml compound (i) compound (iii) (µg/ml) 5 ([6]; strain Horton, with compound (iii) 5 µg/ml): 10 µg/mL; MIC µg/ml compound (i) compound (iii) (µg/ml) 10 ([6]; strain Horton, with compound (iii) 10 µg/ml): 20 µg/mL; MIC µg/ml compound (i) alone ([6]; strain P22): >160 µg/mL; MIC µg/ml compound (i) compound (iii) (µg/ml) 1 ([6]; strain P22, with compound (iii) 1 µg/ml): 10 µg/mL; MIC µg/ml compound (i) compound (iii) (µg/ml) 2 ([6]; strain P22, with compound (iii) 2 µg/ml): 5 µg/mL; MIC µg/ml compound (i) compound (iii) (µg/ml) 5 ([6]; strain P22, with compound (iii) 5 µg/ml): 5 µg/mL; MIC µg/ml compound (i) compound (iii) (µg/ml) 10 ([6]; strain P22, with compound (iii) 10 µg/ml): 5 µg/mL
